What all share (format): functional
Test [1] deals with Cercospora beticola. The test can be described thus: Antifungal activity against Benzimidalzole-resistant Cercospora beticola isolate Cb-19 infected in sugar beet seedlings at 50 ppm applied as soil drench 3 days prior to inoculation.
In test [2] the test system is Botrytis cinerea. The test can be described thus: Antifungal activity against Benzimidalzole-resistant Botryotinia fuckeliana isolate Bc-44 infected compound-treated kidney bean leaves at 0.8 ppm after 4 days.
In test [3] the test system is Botrytis cinerea. Nature of the test: Antifungal activity against Benzimidalzole-resistant Botryotinia fuckeliana isolate Bc-20 infected compound-treated kidney bean leaves at 200 ppm after 4 days.
Test [4] concerns Botrytis cinerea. The test can be described thus: Antifungal activity against Benzimidalzole-resistant Botryotinia fuckeliana isolate Bc-20 infected compound-treated kidney bean leaves at 50 ppm after 4 days.

With `C#CCOc1cc(N/C=N/OC)cc(Cl)c1OCC#C`, the Activity in test [1] stood at 68%; in test [2], 75%.
Take `C#CCOc1c(Cl)cc(N/C=N/OC)cc1Cl`: the Activity was 11% in test [3] and 6% in test [4].
